Molecular target: Methionine aminopeptidase (Staphylococcus aureus (strain MW2), UniProt P0A079)
Experiment: MetAP Inhibition Assay
Conditions: pH 7.5; 22 °C
Procedure: The MetAP reaction with Co2+ as a cofactor is coupled to a prolyl aminopeptidase (ProAP) using Met-Pro-p-nitroanilide as substrate. MetAP-catalyzed cleavage of the N-terminal methionine produces prolyl-p-nitroanilide, which is rapidly hydrolyzed by ProAP to release a chromogenic product. This allows the MetAP reaction to be continuously monitored at 405 nm on a UVVIS spectrophotometer. The initial rate was calculated from the early part of the reaction progress curve (<5 min). Activity assays were performed in triplicate using eight to 16 concentrations of substrate or inhibitor.

Chain of Methionine aminopeptidase (P0A079 whole entry): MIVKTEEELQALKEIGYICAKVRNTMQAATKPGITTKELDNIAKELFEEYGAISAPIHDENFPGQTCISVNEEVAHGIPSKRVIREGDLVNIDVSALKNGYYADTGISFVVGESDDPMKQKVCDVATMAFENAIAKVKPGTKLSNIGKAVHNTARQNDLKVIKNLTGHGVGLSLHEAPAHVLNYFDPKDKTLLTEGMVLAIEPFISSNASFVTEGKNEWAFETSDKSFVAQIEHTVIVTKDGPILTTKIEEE

Row | Structure (SMILES) | IC50
1 | Cn1cnnc1SCc1ccccc1 [1,2,4-triazole derivative.] | > 100000 nM
2 | Nc1n[nH]c(SCc2ccccc2)n1 [1,2,4-triazole derivative.] | 599 nM
3 | CSCC[C@H](N)c1nnc(SCc2ccccc2)[nH]1 [1,2,4-triazole derivative.] | 43.7 nM
